Measured values from the NIST ThermoML archive (doi:10.1021/je060271a).
Several values for one entry are separate records, joined by “and”; a condition that tells them apart may be missing. Equal entries are not always repeated.

Details: 343.16 K, Liquid, Vibrating tube method

CCCCCC(=O)OCC(COC(=O)CCCCC)(COC(=O)CCCCC)COC(=O)CCCCC [pentaerythritol tetrahexanoate]
Details	mass density
12946 kPa	966.8 kg/m3
12969 kPa	966.9 kg/m3
13446 kPa	967.2 kg/m3
13485 kPa	967.3 kg/m3
13510 kPa	967.1 kg/m3
13521 kPa	967.2 kg/m3
13524 kPa	967.2 kg/m3
13527 kPa	967.3 kg/m3
13530 kPa	967.2 kg/m3
13534 kPa	967.1 kg/m3
13539 kPa	967.2 kg/m3
13542 kPa	967.2 kg/m3
13545 kPa	967.2 kg/m3
13548 kPa	967.2 kg/m3
13550 kPa	967.1 kg/m3
13554 kPa	967.3 kg/m3
13556 kPa	967.3 kg/m3
13562 kPa	967.2 kg/m3
13571 kPa	967.4 kg/m3
13578 kPa	967.2 kg/m3
13593 kPa	967.3 kg/m3
13604 kPa	967.2 kg/m3 and 967.4 kg/m3
13605 kPa	967.3 kg/m3 and 967.2 kg/m3
13606 kPa	967.2 kg/m3 and 967.3 kg/m3
13607 kPa	967.2 kg/m3
13608 kPa	967.2 kg/m3 and 967.3 kg/m3 and 967 kg/m3
13609 kPa	967.3 kg/m3
13610 kPa	967.3 kg/m3
13612 kPa	967.2 kg/m3
13620 kPa	967.2 kg/m3
13632 kPa	967.3 kg/m3
13650 kPa	967.3 kg/m3
13671 kPa	967.3 kg/m3
13695 kPa	967.3 kg/m3
13719 kPa	967.4 kg/m3
13749 kPa	967.3 kg/m3
13774 kPa	967.4 kg/m3
13798 kPa	967.5 kg/m3
13828 kPa	967.5 kg/m3
13853 kPa	967.4 kg/m3
13878 kPa	967.4 kg/m3
13960 kPa	967.5 kg/m3
14011 kPa	967.6 kg/m3
14041 kPa	967.5 kg/m3
14066 kPa	967.5 kg/m3
14096 kPa	967.6 kg/m3
14122 kPa	967.7 kg/m3
14146 kPa	967.7 kg/m3
14176 kPa	967.7 kg/m3
14201 kPa	967.5 kg/m3
14227 kPa	967.6 kg/m3
14310 kPa	967.7 kg/m3
14444 kPa	967.9 kg/m3
14501 kPa	967.9 kg/m3
14527 kPa	967.9 kg/m3
14558 kPa	967.9 kg/m3
14584 kPa	967.8 kg/m3
14611 kPa	967.9 kg/m3
14643 kPa	967.9 kg/m3
14670 kPa	968 kg/m3
14696 kPa	968 kg/m3
14723 kPa	967.9 kg/m3
14870 kPa	968.1 kg/m3
14897 kPa	968.1 kg/m3
14930 kPa	968.2 kg/m3
14958 kPa	968.2 kg/m3
14985 kPa	968.3 kg/m3
15019 kPa	968.2 kg/m3
15047 kPa	968.3 kg/m3
15080 kPa	968.3 kg/m3
15108 kPa	968.2 kg/m3
15136 kPa	968.3 kg/m3
15164 kPa	968.3 kg/m3
15198 kPa	968.4 kg/m3
15226 kPa	968.5 kg/m3
15255 kPa	968.4 kg/m3
15642 kPa	968.6 kg/m3
15668 kPa	968.6 kg/m3
15694 kPa	968.7 kg/m3
15725 kPa	968.7 kg/m3
15751 kPa	968.8 kg/m3
15777 kPa	968.7 kg/m3
15808 kPa	968.8 kg/m3
15834 kPa	968.8 kg/m3
15864 kPa	968.9 kg/m3
15891 kPa	968.9 kg/m3
15916 kPa	968.8 kg/m3
15943 kPa	969 kg/m3
15974 kPa	968.8 kg/m3
16000 kPa	969 kg/m3
16057 kPa	969 kg/m3
16359 kPa	969 kg/m3
16386 kPa	969.2 kg/m3
16412 kPa	969.2 kg/m3
16439 kPa	969.4 kg/m3
16472 kPa	969.2 kg/m3
16494 kPa	969.2 kg/m3
16872 kPa	969.5 kg/m3
16899 kPa	969.5 kg/m3
16931 kPa	969.5 kg/m3
16957 kPa	969.5 kg/m3
16982 kPa	969.7 kg/m3
17013 kPa	969.6 kg/m3
17038 kPa	969.6 kg/m3
17064 kPa	969.6 kg/m3
17094 kPa	969.8 kg/m3
17120 kPa	969.7 kg/m3
17146 kPa	969.7 kg/m3
17177 kPa	969.8 kg/m3
17203 kPa	969.7 kg/m3
17229 kPa	969.8 kg/m3
17260 kPa	969.7 kg/m3
17286 kPa	969.9 kg/m3
17312 kPa	969.7 kg/m3
17344 kPa	969.7 kg/m3
17371 kPa	969.9 kg/m3
17398 kPa	969.9 kg/m3
17430 kPa	969.9 kg/m3
19111 kPa	971.1 kg/m3
19142 kPa	970.9 kg/m3
19168 kPa	971.1 kg/m3
19194 kPa	971.2 kg/m3
19226 kPa	971.2 kg/m3
19252 kPa	971.1 kg/m3
19282 kPa	971.1 kg/m3
19307 kPa	971.2 kg/m3
19331 kPa	971.4 kg/m3
19353 kPa	971.2 kg/m3
19375 kPa	971.2 kg/m3
19400 kPa	971.3 kg/m3
19422 kPa	971.2 kg/m3
19443 kPa	971.3 kg/m3
19469 kPa	971.4 kg/m3
19491 kPa	971.3 kg/m3
19512 kPa	971.3 kg/m3
19539 kPa	971.3 kg/m3
19561 kPa	971.4 kg/m3
19583 kPa	971.4 kg/m3
19609 kPa	971.4 kg/m3
19868 kPa	971.6 kg/m3
19886 kPa	971.6 kg/m3
19908 kPa	971.6 kg/m3
19925 kPa	971.7 kg/m3
19941 kPa	971.7 kg/m3
19959 kPa	971.7 kg/m3
19975 kPa	971.6 kg/m3
19990 kPa	971.8 kg/m3
20010 kPa	971.8 kg/m3
20026 kPa	971.6 kg/m3
20042 kPa	971.7 kg/m3
20054 kPa	971.7 kg/m3
20065 kPa	971.8 kg/m3
20075 kPa	971.6 kg/m3
20086 kPa	971.7 kg/m3
20099 kPa	971.8 kg/m3
20105 kPa	971.8 kg/m3
20106 kPa	971.8 kg/m3
20108 kPa	971.7 kg/m3
20111 kPa	971.8 kg/m3
20114 kPa	971.8 kg/m3
20116 kPa	971.8 kg/m3
20117 kPa	971.8 kg/m3
20118 kPa	971.7 kg/m3
20119 kPa	971.7 kg/m3
20121 kPa	971.6 kg/m3
20122 kPa	971.7 kg/m3
20124 kPa	971.6 kg/m3 and 971.8 kg/m3
20140 kPa	971.8 kg/m3
20174 kPa	971.9 kg/m3
20204 kPa	971.8 kg/m3
20239 kPa	971.8 kg/m3
20269 kPa	971.9 kg/m3
20298 kPa	971.8 kg/m3
20328 kPa	971.8 kg/m3
20365 kPa	971.9 kg/m3
20395 kPa	971.8 kg/m3
20426 kPa	972 kg/m3
20462 kPa	971.8 kg/m3
20493 kPa	972 kg/m3
20525 kPa	972 kg/m3
20558 kPa	971.9 kg/m3
20589 kPa	972 kg/m3
20626 kPa	972.1 kg/m3
20657 kPa	972.3 kg/m3
20689 kPa	972.1 kg/m3
20727 kPa	972.1 kg/m3
20759 kPa	972.2 kg/m3
20790 kPa	972.2 kg/m3
20828 kPa	972.3 kg/m3
20860 kPa	972.2 kg/m3
20892 kPa	972.2 kg/m3
20930 kPa	972.4 kg/m3
20963 kPa	972.3 kg/m3
20998 kPa	972.3 kg/m3
21030 kPa	972.4 kg/m3
21068 kPa	972.5 kg/m3
21101 kPa	972.4 kg/m3
21134 kPa	972.4 kg/m3
21166 kPa	972.5 kg/m3
21238 kPa	972.5 kg/m3
21271 kPa	972.5 kg/m3
21309 kPa	972.6 kg/m3
21339 kPa	972.6 kg/m3
21372 kPa	972.6 kg/m3
21399 kPa	972.7 kg/m3
21426 kPa	972.6 kg/m3
21732 kPa	972.7 kg/m3
21757 kPa	972.8 kg/m3
21782 kPa	972.8 kg/m3
21811 kPa	972.9 kg/m3
22020 kPa	972.9 kg/m3
22050 kPa	973.1 kg/m3
22076 kPa	973.1 kg/m3
22102 kPa	973 kg/m3
22132 kPa	973.1 kg/m3
22157 kPa	973 kg/m3
22183 kPa	973.2 kg/m3
22214 kPa	973.1 kg/m3
22240 kPa	973.1 kg/m3
22266 kPa	973.1 kg/m3
22296 kPa	973.1 kg/m3
22322 kPa	973.2 kg/m3
22348 kPa	973.2 kg/m3
22379 kPa	973.3 kg/m3
22405 kPa	973.1 kg/m3
22432 kPa	973.3 kg/m3
22458 kPa	973.2 kg/m3
22489 kPa	973.3 kg/m3
22515 kPa	973.3 kg/m3
22547 kPa	973.4 kg/m3
22573 kPa	973.4 kg/m3
23002 kPa	973.6 kg/m3
23035 kPa	973.7 kg/m3
23063 kPa	973.7 kg/m3
23092 kPa	973.8 kg/m3
23125 kPa	973.8 kg/m3
23154 kPa	973.8 kg/m3
23183 kPa	973.8 kg/m3
23212 kPa	973.9 kg/m3
23246 kPa	973.9 kg/m3
23274 kPa	973.9 kg/m3
23301 kPa	974 kg/m3
23332 kPa	973.8 kg/m3
23381 kPa	974 kg/m3
23410 kPa	974 kg/m3
23435 kPa	974 kg/m3
23459 kPa	974 kg/m3
23484 kPa	974.1 kg/m3
23514 kPa	973.9 kg/m3
23540 kPa	974.1 kg/m3
23566 kPa	974 kg/m3
23591 kPa	974.2 kg/m3
23616 kPa	974 kg/m3
23646 kPa	974.1 kg/m3
23671 kPa	974.1 kg/m3
23696 kPa	974.1 kg/m3
23727 kPa	974.1 kg/m3
23752 kPa	974 kg/m3
23782 kPa	974.2 kg/m3
23914 kPa	974.3 kg/m3
23941 kPa	974.3 kg/m3
23971 kPa	974.5 kg/m3
23997 kPa	974.2 kg/m3
24028 kPa	974.3 kg/m3
24054 kPa	974.2 kg/m3
24080 kPa	974.3 kg/m3
24106 kPa	974.3 kg/m3
24137 kPa	974.4 kg/m3
24163 kPa	974.4 kg/m3
24190 kPa	974.4 kg/m3
24221 kPa	974.4 kg/m3
24248 kPa	974.4 kg/m3
24279 kPa	974.4 kg/m3
24306 kPa	974.4 kg/m3
26698 kPa	976.1 kg/m3
26725 kPa	976 kg/m3
26758 kPa	976.2 kg/m3
26785 kPa	976.3 kg/m3
26812 kPa	976.3 kg/m3
26845 kPa	976.2 kg/m3
27601 kPa	976.6 kg/m3
27630 kPa	976.8 kg/m3
27660 kPa	976.8 kg/m3
27697 kPa	976.8 kg/m3
27728 kPa	976.7 kg/m3
27758 kPa	976.8 kg/m3
27787 kPa	976.8 kg/m3
27824 kPa	976.7 kg/m3
27854 kPa	976.9 kg/m3
